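All cell lines were grown in 96-well plates and treated with compound for 48 hours. TGI is the concentration that stops growth completely.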
Assays:
Assay in all cases: NCI tumour cell line growth inhibition, 48 h
HOP-62 NSCLC = tested on: HOP-62 NSCLC
RXF 393 renal = tested on: RXF 393 renal
IGROV1 ovarian = tested on: IGROV1 ovarian
LOX IMVI melanoma = tested on: LOX IMVI melanoma
MALME-3M melanoma = tested on: MALME-3M melanoma
OVCAR-3 ovarian = tested on: OVCAR-3 ovarian
UO-31 renal = tested on: UO-31 renal
NCI-H460 lung = tested on: NCI-H460 lung
CAKI-1 renal = tested on: CAKI-1 renal
SN12C renal = tested on: SN12C renal
U251 CNS = tested on: U251 CNS
SNB-78 CNS = tested on: SNB-78 CNS
M19-MEL melanoma = tested on: M19-MEL melanoma
OVCAR-8 ovarian = tested on: OVCAR-8 ovarian
SNB-75 CNS = tested on: SNB-75 CNS
DLD-1 colon = tested on: DLD-1 colon
RXF-631 renal = tested on: RXF-631 renal
SW-620 colon = tested on: SW-620 colon
HL-60(TB) leukemia = tested on: HL-60(TB) leukemia
MOLT-4 leukemia = tested on: MOLT-4 leukemia
LXFL 529 NSCLC = tested on: LXFL 529 NSCLC
UACC-257 melanoma = tested on: UACC-257 melanoma
KM12 colon = tested on: KM12 colon
HCT-15 colon = tested on: HCT-15 colon
K-562 leukemia = tested on: K-562 leukemia
SF-539 CNS = tested on: SF-539 CNS
NCI-H226 lung = tested on: NCI-H226 lung
KM20L2 colon = tested on: KM20L2 colon
SK-MEL-28 melanoma = tested on: SK-MEL-28 melanoma
DMS 114 small cell lung = tested on: DMS 114 small cell lung
A498 renal = tested on: A498 renal
TK-10 renal = tested on: TK-10 renal
EKVX NSCLC = tested on: EKVX NSCLC
M14 melanoma = tested on: M14 melanoma
SF-268 CNS = tested on: SF-268 CNS
COLO 205 colon = tested on: COLO 205 colon
HOP-18 NSCLC = tested on: HOP-18 NSCLC
NCI-H522 lung = tested on: NCI-H522 lung
SR leukemia = tested on: SR leukemia
DMS 273 small cell lung = tested on: DMS 273 small cell lung
HT29 colon = tested on: HT29 colon
SK-OV-3 ovarian = tested on: SK-OV-3 ovarian
SNB-19 CNS = tested on: SNB-19 CNS
NCI-H23 lung = tested on: NCI-H23 lung
HCC-2998 colon = tested on: HCC-2998 colon
SF-295 CNS = tested on: SF-295 CNS
UACC-62 melanoma = tested on: UACC-62 melanoma
HOP-92 NSCLC = tested on: HOP-92 NSCLC
OVCAR-5 ovarian = tested on: OVCAR-5 ovarian
HCT-116 colon = tested on: HCT-116 colon
XF 498 CNS = tested on: XF 498 CNS
RPMI-8226 leukemia = tested on: RPMI-8226 leukemia
A549 NSCLC = tested on: A549 NSCLC
OVCAR-4 ovarian = tested on: OVCAR-4 ovarian
SK-MEL-5 melanoma = tested on: SK-MEL-5 melanoma
ACHN renal = tested on: ACHN renal
786-0 renal = tested on: 786-0 renal
MCF7 breast = tested on: MCF7 breast
SK-MEL-2 melanoma = tested on: SK-MEL-2 melanoma
P388 leukemia = tested on: P388 leukemia
P388/ADR leukemia = tested on: P388/ADR leukemia
NCI/ADR-RES ovarian = tested on: NCI/ADR-RES ovarian

**Q.** Which results are given for `CCCCCCCCCCC(=O)CC(=O)c1c(O)cccc1O`?
**A.** TGI (HOP-62 NSCLC): 72.9 µM; TGI (RXF 393 renal): 72.5 µM; TGI (IGROV1 ovarian): > 100 µM; TGI (LOX IMVI melanoma): 37 µM; TGI (MALME-3M melanoma): > 100 µM; TGI (OVCAR-3 ovarian): 63.7 µM; TGI (UO-31 renal): 85.9 µM; TGI (NCI-H460 lung): > 100 µM; TGI (CAKI-1 renal): > 100 µM; TGI (SN12C renal): > 100 µM; TGI (U251 CNS): 69.5 µM; TGI (SNB-78 CNS): > 100 µM; TGI (M19-MEL melanoma): 67.1 µM; TGI (OVCAR-8 ovarian): > 100 µM; TGI (SNB-75 CNS): > 100 µM; TGI (DLD-1 colon): > 100 µM; TGI (RXF-631 renal): > 100 µM; TGI (SW-620 colon): > 100 µM; TGI (HL-60(TB) leukemia): 37.3 µM; TGI (MOLT-4 leukemia): 59 µM; TGI (LXFL 529 NSCLC): > 100 µM; TGI (UACC-257 melanoma): 96 µM; TGI (KM12 colon): > 100 µM; TGI (HCT-15 colon): > 100 µM; TGI (K-562 leukemia): 81.3 µM; TGI (SF-539 CNS): > 100 µM; TGI (NCI-H226 lung): 63.6 µM; TGI (KM20L2 colon): > 100 µM; TGI (SK-MEL-28 melanoma): > 100 µM; TGI (DMS 114 small cell lung): 72 µM; TGI (A498 renal): > 100 µM; TGI (TK-10 renal): > 100 µM; TGI (EKVX NSCLC): > 100 µM; TGI (M14 melanoma): > 100 µM; TGI (SF-268 CNS): > 100 µM; TGI (COLO 205 colon): > 100 µM; TGI (HOP-18 NSCLC): 98.7 µM; TGI (NCI-H522 lung): 90.4 µM; TGI (SR leukemia): > 100 µM; TGI (DMS 273 small cell lung): 58.2 µM; TGI (HT29 colon): > 100 µM; TGI (SK-OV-3 ovarian): > 100 µM; TGI (SNB-19 CNS): > 100 µM; TGI (NCI-H23 lung): 81.7 µM; TGI (HCC-2998 colon): > 100 µM; TGI (SF-295 CNS): > 100 µM; TGI (UACC-62 melanoma): > 100 µM; TGI (HOP-92 NSCLC): 82 µM; TGI (OVCAR-5 ovarian): 49.1 µM; TGI (HCT-116 colon): 41.8 µM; TGI (XF 498 CNS): 46.2 µM; TGI (RPMI-8226 leukemia): 50.2 µM; TGI (A549 NSCLC): > 100 µM; TGI (OVCAR-4 ovarian): > 100 µM; TGI (SK-MEL-5 melanoma): 72.8 µM; TGI (ACHN renal): 91.3 µM; TGI (786-0 renal): > 100 µM

**Q.** `COC1=C(C)C(=O)C2=C(C1=O)[C@@H]1[C@@H]3Cc4c(OC(=O)CO)c(C)c(OC)c(O)c4[C@H](CNC(=O)C(C)=O)N3[C@@H](C#N)[C@H](C2)N1C` was tested. Which TGI (HOP-62 NSCLC) did it give?
**A.** The TGI was 1.16 µM.

**Q.** And the TGI (RXF 393 renal)?
**A.** The TGI was 0.0392 µM.

**Q.** What about the TGI (LOX IMVI melanoma) of the same compound?
**A.** The TGI was less than 0.01 µM.

**Q.** And the TGI (MALME-3M melanoma)?
**A.** Its TGI is 0.351 µM.

**Q.** And the TGI (OVCAR-3 ovarian)?
**A.** Its TGI is 0.0366 µM.

**Q.** And the TGI (UO-31 renal)?
**A.** Its TGI is 0.362 µM.

**Q.** What about the TGI (NCI-H460 lung) of the same compound?
**A.** Its TGI is 1.83 µM.

**Q.** What about the TGI (MCF7 breast) of the same compound?
**A.** The TGI was 13.9 µM.

**Q.** And the TGI (CAKI-1 renal)?
**A.** The TGI was 7.87 µM.

**Q.** What about the TGI (SN12C renal) of the same compound?
**A.** The TGI was 10.8 µM.

**Q.** What about the TGI (U251 CNS) of the same compound?
**A.** Its TGI is 4.09 µM.

**Q.** And the TGI (SNB-78 CNS)?
**A.** Its TGI is 0.998 µM.

**Q.** What about the TGI (M19-MEL melanoma) of the same compound?
**A.** The TGI was 0.0463 µM.

**Q.** And the TGI (OVCAR-8 ovarian)?
**A.** Its TGI is 0.684 µM.

**Q.** And the TGI (SK-MEL-2 melanoma)?
**A.** Its TGI is 0.0359 µM.

**Q.** And the TGI (SW-620 colon)?
**A.** The TGI was 3.24 µM.

**Q.** What about the TGI (HL-60(TB) leukemia) of the same compound?
**A.** Its TGI is 2.75 µM.

**Q.** What about the TGI (MOLT-4 leukemia) of the same compound?
**A.** The TGI was 0.173 µM.

**Q.** And the TGI (UACC-257 melanoma)?
**A.** The TGI was 0.0364 µM.

**Q.** What about the TGI (KM12 colon) of the same compound?
**A.** Its TGI is 2.05 µM.

**Q.** What about the TGI (K-562 leukemia) of the same compound?
**A.** The TGI was 7.77 µM.

**Q.** What about the TGI (SF-539 CNS) of the same compound?
**A.** Its TGI is 0.24 µM.

**Q.** What about the TGI (NCI-H226 lung) of the same compound?
**A.** Its TGI is 0.834 µM.

**Q.** What about the TGI (KM20L2 colon) of the same compound?
**A.** Its TGI is 0.686 µM.

**Q.** What about the TGI (SK-MEL-28 melanoma) of the same compound?
**A.** Its TGI is 1.2 µM.

**Q.** What about the TGI (DMS 114 small cell lung) of the same compound?
**A.** The TGI was less than 0.01 µM.

**Q.** What about the TGI (SF-268 CNS) of the same compound?
**A.** Its TGI is 0.208 µM.

**Q.** And the TGI (P388 leukemia)?
**A.** Its TGI is 0.0205 µM.

**Q.** And the TGI (COLO 205 colon)?
**A.** The TGI was less than 0.0309 µM.

**Q.** And the TGI (HOP-18 NSCLC)?
**A.** The TGI was 0.0966 µM.

**Q.** What about the TGI (P388/ADR leukemia) of the same compound?
**A.** The TGI was 1.82 µM.

**Q.** What about the TGI (NCI-H522 lung) of the same compound?
**A.** Its TGI is less than 0.0139 µM.

**Q.** What about the TGI (DMS 273 small cell lung) of the same compound?
**A.** Its TGI is 0.065 µM.

**Q.** And the TGI (HT29 colon)?
**A.** The TGI was 10.6 µM.

**Q.** What about the TGI (SK-OV-3 ovarian) of the same compound?
**A.** The TGI was 28.6 µM.

**Q.** And the TGI (NCI-H23 lung)?
**A.** The TGI was less than 0.0176 µM.

**Q.** What about the TGI (HCC-2998 colon) of the same compound?
**A.** Its TGI is 0.226 µM.

**Q.** What about the TGI (SF-295 CNS) of the same compound?
**A.** The TGI was 2.28 µM.

**Q.** And the TGI (UACC-62 melanoma)?
**A.** Its TGI is less than 0.0368 µM.

**Q.** What about the TGI (HOP-92 NSCLC) of the same compound?
**A.** The TGI was less than 0.0258 µM.

**Q.** What about the TGI (OVCAR-5 ovarian) of the same compound?
**A.** The TGI was 0.447 µM.

**Q.** And the TGI (HCT-116 colon)?
**A.** Its TGI is 12.1 µM.

**Q.** What about the TGI (XF 498 CNS) of the same compound?
**A.** Its TGI is less than 0.01 µM.

**Q.** What about the TGI (NCI/ADR-RES ovarian) of the same compound?
**A.** Its TGI is 17.1 µM.

**Q.** And the TGI (RPMI-8226 leukemia)?
**A.** Its TGI is 0.389 µM.

**Q.** And the TGI (A549 NSCLC)?
**A.** Its TGI is 49 µM.

**Q.** What about the TGI (OVCAR-4 ovarian) of the same compound?
**A.** The TGI was 0.484 µM.

**Q.** And the TGI (SK-MEL-5 melanoma)?
**A.** The TGI was 0.0393 µM.

Reference: PubChem BioAssay (NCI)
